The text below walks through data of PubChem BioAssay AID1259411 (Chemical Carcinogenesis Research Information System (CCRIS), 2018).

The data set has as its system rodent carcinogenicity bioassays, tumor incidence. Description: CCRIS carcinogenicity studies. The method in brief:
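NCI-built, expert-reviewed records of carcinogenicity and related test outcomes (mutagenicity, tumor promotion/inhibition) compiled from published and report sources, historical span 1985-2011, not updated.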

Molecules are shown by their SMILES. Activity calls are given as the source filed them. No rule for the calls is given here.

`COc1cc(-c2ccc(N)c(OC)c2)ccc1N`: the carcinogen call runs as follows: (Species: HAMSTER, Route: ORAL, Tumor Site: Type of Lesion: FORESTOMACH) “active; positive”; (Species: MOUSE, Strain/Sex: BALB/FEMALE, Route: ORAL, Dose: 0, 20, 40, 80, 160, 315, 630 PPM IN DRINKING WATER (STUDY DURATION: 112 WK), Dose: 0, 20, 40, 80, 160, 315, 630 PPM IN DRINKING WATER (STUDY DURATION: 112 WK)) “inactive; negative”; (Species: MOUSE, Strain/Sex: BALB/MALE, Route: ORAL, Dose: 0, 20, 40, 80, 160, 315, 630 PPM IN DRINKING WATER (STUDY DURATION: 112 WK), Dose: 0, 20, 40, 80, 160, 315, 630 PPM IN DRINKING WATER (STUDY DURATION: 112 WK)) “inactive; negative”; (Species: RAT, Route: ORAL, Tumor Site: Type of Lesion: EAR (ZYMBAL GLAND), URINARY BLADDER, INTESTINES, INTEGUMENTARY SYSTEM (SKIN), Tumor Site: Type of Lesion: EAR (ZYMBAL GLAND), URINARY BLADDER, INTESTINES, INTEGUMENTARY SYSTEM (SKIN)) “active; positive”; (Species: RAT, Strain/Sex: F344/FEMALE, Route: ORAL, Dose: 0, 80, 170, 330 PPM IN DRINKING WATER FOR 21 MO ( STUDY DURATION: 93 WK), Dose: 0, 80, 170, 330 PPM IN DRINKING WATER FOR 21 MO ( STUDY DURATION: 93 WK), Tumor Site: Type of Lesion: CLITORAL GLAND: ADENOMA OR CARCINOMA, LARGE INTESTINE: ADENOMATOUS POLYP OR ADENOCARCINOMA, LIVER: NEOPLASTIC NODULE OR, Tumor Site: Type of Lesion: CLITORAL GLAND: ADENOMA OR CARCINOMA, LARGE INTESTINE: ADENOMATOUS POLYP OR ADENOCARCINOMA, LIVER: NEOPLASTIC NODULE OR) “active; positive”; (Species: RAT, Strain/Sex: F344/FEMALE, Route: ORAL, Dose: 0, 80, 170, 330 PPM IN DRINKING WATER FOR 21 MO (STUDY DURATION: 21 MO), Dose: 0, 80, 170, 330 PPM IN DRINKING WATER FOR 21 MO (STUDY DURATION: 21 MO), Tumor Site: Type of Lesion: ZYMBAL GLAND: ADENOMA, CARCINOMA, CLITORAL GLAND: ADENOMA, CARCINOMA, LARGE INTESTINE: ADENOMATOUS POLYP OR ADENOCARCINO, Tumor Site: Type of Lesion: ZYMBAL GLAND: ADENOMA, CARCINOMA, CLITORAL GLAND: ADENOMA, CARCINOMA, LARGE INTESTINE: ADENOMATOUS POLYP OR ADENOCARCINO) “active; positive”. Also, the carcinogen call by setting is: (Species: RAT, Strain/Sex: F344/MALE, Route: ORAL, Dose: 0, 80, 170, 330 PPM IN DRINKING WATER FOR 21 MO (STUDY DURATION: 21 MO), Dose: 0, 80, 170, 330 PPM IN DRINKING WATER FOR 21 MO (STUDY DURATION: 21 MO), Tumor Site: Type of Lesion: ZYMBAL GLAND: ADENOMA, CARCINOMA, PREPUTIAL GLAND: CARCINOMA, SKIN: BASAL CELL ADENOMA, BASAL CELL CARCINOMA, SQUAMOUS C, Tumor Site: Type of Lesion: ZYMBAL GLAND: ADENOMA, CARCINOMA, PREPUTIAL GLAND: CARCINOMA, SKIN: BASAL CELL ADENOMA, BASAL CELL CARCINOMA, SQUAMOUS C) “active; positive”; (Species: RAT, Strain/Sex: F344/MALE, Route: ORAL, Dose: 0, 80, 170, 330 PPM IN DRINKING WATER FOR 21 MO (STUDY DURATION: 93 WK), Dose: 0, 80, 170, 330 PPM IN DRINKING WATER FOR 21 MO (STUDY DURATION: 93 WK), Tumor Site: Type of Lesion: BRAIN: MALIGNANT ASTROCYTOMA, PREPUTIAL GLAND: CARCINOMA, ADENOMA OR CARCINOMA, LARGE INTESTINE: ADENOMATOUS POLYP OR AD, Tumor Site: Type of Lesion: BRAIN: MALIGNANT ASTROCYTOMA, PREPUTIAL GLAND: CARCINOMA, ADENOMA OR CARCINOMA, LARGE INTESTINE: ADENOMATOUS POLYP OR AD) “active; positive”.
Take `O=C1CCC(=O)O1`: the carcinogen call (Species: MOUSE, Strain/Sex: B6C3F1/FEMALE, Route: GAVAGE, Dose: 0, 75, 150 MG/KG IN CORN OIL 5 D/WK FOR 103 WK (STUDY DURATION: 104 WK), Dose: 0, 75, 150 MG/KG IN CORN OIL 5 D/WK FOR 103 WK (STUDY DURATION: 104 WK)) is “inactive; negative”; the carcinogen call (Species: MOUSE, Strain/Sex: B6C3F1/MALE, Route: GAVAGE, Dose: 0, 38, 75 MG/KG IN CORN OIL 5 D/WK FOR 103 WK (STUDY DURATION: 104 WK), Dose: 0, 38, 75 MG/KG IN CORN OIL 5 D/WK FOR 103 WK (STUDY DURATION: 104 WK)) is “inactive; negative”; the carcinogen call (Species: RAT, Strain/Sex: F344/FEMALE, Route: GAVAGE, Dose: 0, 50, 100 MG/KG IN CORN OIL 5 D/WK FOR 103 WK (STUDY DURATION: 104 WK), Dose: 0, 50, 100 MG/KG IN CORN OIL 5 D/WK FOR 103 WK (STUDY DURATION: 104 WK)) is “inactive; negative”; the carcinogen call (Species: RAT, Strain/Sex: F344/MALE, Route: GAVAGE, Dose: 0, 50, 100 MG/KG IN CORN OIL 5 D/WK FOR 103 WK (STUDY DURATION: 104 WK), Dose: 0, 50, 100 MG/KG IN CORN OIL 5 D/WK FOR 103 WK (STUDY DURATION: 104 WK)) was “inactive; negative”.
On to `NNC(N)=S`, for which the carcinogen call is, setting by setting: (Species: MOUSE, Strain/Sex: SWISS/FEMALE, Route: ORAL, Dose: 0, 156, 312 PPM IN DRINKING WATER DAILY FOR LIFE (STUDY DURATION: 130-140 WK), Dose: 0, 156, 312 PPM IN DRINKING WATER DAILY FOR LIFE (STUDY DURATION: 130-140 WK)) “inactive; negative”; (Species: MOUSE, Strain/Sex: SWISS/MALE, Route: ORAL, Dose: 0, 156, 312 PPM IN DRINKING WATER DAILY FOR LIFE (STUDY DURATION: 130-140 WK), Dose: 0, 156, 312 PPM IN DRINKING WATER DAILY FOR LIFE (STUDY DURATION: 130-140 WK)) “inactive; negative”.
Consider `O=P(OC(CCl)CCl)(OC(CCl)CCl)OC(CCl)CCl`, for which the carcinogen call is, setting by setting: (Species: RAT, Strain/Sex: SPRAGUE-DAWLEY CD/FEMALE, Route: ORAL, Dose: 0, 5, 20, 80 MG/KG/D IN FEED FOR 2 YR (STUDY DURATION: 2 YR), Dose: 0, 5, 20, 80 MG/KG/D IN FEED FOR 2 YR (STUDY DURATION: 2 YR), Tumor Site: Type of Lesion: ADRENAL GLAND: CORTICAL ADENOMA, KIDNEY: CORTICAL ADENOMA, LIVER: HEPATOCELLULAR ADENOMA, Tumor Site: Type of Lesion: ADRENAL GLAND: CORTICAL ADENOMA, KIDNEY: CORTICAL ADENOMA, LIVER: HEPATOCELLULAR ADENOMA) “active; positive”; (Species: RAT, Strain/Sex: SPRAGUE-DAWLEY CD/MALE, Route: ORAL, Dose: 0, 5, 20, 80 MG/KG/D IN FEED FOR 2 YR (STUDY DURATION: 2 YR), Dose: 0, 5, 20, 80 MG/KG/D IN FEED FOR 2 YR (STUDY DURATION: 2 YR), Tumor Site: Type of Lesion: KIDNEY: RENAL CORTICAL ADENOMA, LIVER: HEPATOCELLULAR ADENOMA, TESTES: INTERSTITIAL CELL TUMOR, Tumor Site: Type of Lesion: KIDNEY: RENAL CORTICAL ADENOMA, LIVER: HEPATOCELLULAR ADENOMA, TESTES: INTERSTITIAL CELL TUMOR) “active; positive”.
`CCCCCCCCCCCC(=O)N(CCO)CCO`: the carcinogen call is, setting by setting: (Species: MOUSE, Strain/Sex: B6C3F1/FEMALE, Route: DERMAL, Dose: 0, 100, 200 MG/KG BW IN ETHANOL FOR 105 WK (STUDY DURATION: 105 WK), Dose: 0, 100, 200 MG/KG BW IN ETHANOL FOR 105 WK (STUDY DURATION: 105 WK), Tumor Site: Type of Lesion: LIVER: HEPATOCELLULAR ADENOMA, HEPATOCELLULAR ADENOMA OR CARCINOMA, HEPATOCELLULAR CARCINOMA OR HEPATOBLASTOMA, HEPATOCE) “equivocal”; (Species: MOUSE, Strain/Sex: B6C3F1/MALE, Route: DERMAL, Dose: 0, 100, 200 MG/KG BW IN ETHANOL FOR 105 WK (STUDY DURATION: 105 WK), Dose: 0, 100, 200 MG/KG BW IN ETHANOL FOR 105 WK (STUDY DURATION: 105 WK)) “inactive; negative”; (Species: RAT, Strain/Sex: F344/N/FEMALE, Route: DERMAL, Dose: 0, 50, 100 MG/KG BW IN ETHANOL FOR 105 WK (STUDY DURATION: 105 WK), Dose: 0, 50, 100 MG/KG BW IN ETHANOL FOR 105 WK (STUDY DURATION: 105 WK)) “inactive; negative”; (Species: RAT, Strain/Sex: F344/N/MALE, Route: DERMAL, Dose: 0, 50, 100 MG/KG BW IN ETHANOL FOR 104 WK (STUDY DURATION: 104 WK), Dose: 0, 50, 100 MG/KG BW IN ETHANOL FOR 104 WK (STUDY DURATION: 104 WK)) “inactive; negative”.
Regarding `CC(=O)Nc1nc(-c2ccc([N+](=O)[O-])o2)cs1`, the carcinogen call is, setting by setting: (Species: HAMSTER, Route: ORAL, Tumor Site: Type of Lesion: FORESTOMACH, URINARY BLADDER) “active; positive”; (Species: MOUSE, Route: ORAL, Tumor Site: Type of Lesion: FORESTOMACH, HEMATOPOIETIC SYSTEM (LEUKEMIA), LYMPHATIC SYSTEM: LYMPHATIC LEUKEMIA, Tumor Site: Type of Lesion: FORESTOMACH, HEMATOPOIETIC SYSTEM (LEUKEMIA), LYMPHATIC SYSTEM: LYMPHATIC LEUKEMIA) “active; positive”; (Species: RAT, Route: ORAL, Tumor Site: Type of Lesion: MAMMARY GLAND, LUNG, SALIVARY GLAND, Tumor Site: Type of Lesion: MAMMARY GLAND, LUNG, SALIVARY GLAND) “active; positive”.
